Results published in ChEMBL document CHEMBL1201862, “PubChem BioAssay data set” (2004).
Blank lines part the entries; values can stand above or below the compound they belong to. Calls of active or inactive are those of the source.

Legend:
[1] = target: T1, Runt-related transcription factor 1/Core-binding factor subunit beta (Homo sapiens, UniProt Q01196+Q13951); assay: inhibitors of RUNX1 Runt–CBFb-SMMHC binding, biochemical, TR-FRET (AID 1438); format: protein assay
[2] = system: HEK293; assay: Fluorescence-based counterscreen for potentiators or agonists of NPY-Y2: cell-based high-throughput dose response assay to identify inhibitors of cyclic nucleotide gated ion channel (CNGC) activity. In this assay, the parental HEK293 cell line transfected with a cyclic-nucleotide gated ion channel (CNGC)-based cAMP sensor is used to measure inhibition of isoproterenol-induced CNGC activity by test compound.; format: functional; details: Homo sapiens;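 further: stimulus is 1 µM isoproterenol at EC100 plus PDE inhibitor Ro 20-1724 at 25 µM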
[3] = target: T2, Neuropeptide Y receptor type 2 (Homo sapiens, UniProt P49146); assay: Fluorescence-based cell-based high-throughput dose response assay for agonists of NPY-Y2. [Related pubchem assays: 1703 (Screening assay (CNGC inhibitors).), 1359 (Screening assay (NPY-Y2 potentiators or agonists).), 1304 (Screening assay (NPY-Y1 potentiators or agonists).), 1710 (Screening assay (NPY-Y2 agonists).), 1791 (Summary AID.)]; format: functional
T2 sequence (P49146 whole entry): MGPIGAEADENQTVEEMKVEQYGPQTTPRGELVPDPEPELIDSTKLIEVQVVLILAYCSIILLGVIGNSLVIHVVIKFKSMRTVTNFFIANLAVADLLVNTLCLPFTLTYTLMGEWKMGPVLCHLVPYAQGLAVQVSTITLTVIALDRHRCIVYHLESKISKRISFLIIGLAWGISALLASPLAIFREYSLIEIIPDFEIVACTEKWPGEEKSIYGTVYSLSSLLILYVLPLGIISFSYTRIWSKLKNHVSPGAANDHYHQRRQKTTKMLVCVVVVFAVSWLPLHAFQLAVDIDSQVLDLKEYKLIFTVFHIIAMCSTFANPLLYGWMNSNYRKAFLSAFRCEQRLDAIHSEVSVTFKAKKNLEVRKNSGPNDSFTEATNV

[4] = target: T1, Runt-related transcription factor 1/Core-binding factor subunit beta; assay: inhibitors of RUNX1 Runt–CBFb-SMMHC binding, primary screen, biochemical, FRET, Cerulean-Runt, Venus-CBFb-SMMHC, uHTS (AID 1434); format: protein assay;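 further: partner is the CBFb-SMMHC leukemia fusion protein rather than wild-type CBFb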
[5] = target: T3, Neuropeptide Y receptor type 1 (Homo sapiens, UniProt P25929); assay: Fluorescence-based counterscreen for agonists of NPY-Y2: cell-based high-throughput dose response assay for agonists of NPY-Y1.; format: functional
T3 sequence (P25929 whole entry): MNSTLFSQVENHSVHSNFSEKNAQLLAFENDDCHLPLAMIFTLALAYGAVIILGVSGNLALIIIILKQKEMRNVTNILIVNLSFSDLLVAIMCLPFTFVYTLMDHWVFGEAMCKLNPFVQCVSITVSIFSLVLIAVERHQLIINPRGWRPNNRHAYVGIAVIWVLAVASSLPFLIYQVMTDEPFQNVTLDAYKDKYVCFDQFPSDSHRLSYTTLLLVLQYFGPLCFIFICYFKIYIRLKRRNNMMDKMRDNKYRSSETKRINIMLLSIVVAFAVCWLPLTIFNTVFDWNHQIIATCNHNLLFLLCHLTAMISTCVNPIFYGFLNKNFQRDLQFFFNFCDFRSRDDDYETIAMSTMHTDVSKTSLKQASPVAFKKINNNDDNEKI

[6] = target: Troponin, cardiac muscle (Homo sapiens, UniProt P19429+P45379+P63316); assay: Fluorescence-based biochemical high throughput dose response assay for activators of the calcium sensitivity of cardiac Regulated Thin Filaments (RTF). [Related pubchem assays (depositor defined):AID493008, AID493018, AID504382, AID504383]; format: protein-complex assay
[7] = target: Cytochrome P450 3A4 (Homo sapiens, UniProt P08684);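 further: CYP3A4 tested as one member of a cytochrome P450 panel screen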
[8] = target: Type-1 angiotensin II receptor (Homo sapiens, UniProt P30556); assay: AT1 receptor agonists, dose response, selectivity assay for APJ receptor agonist project, cell-based, uHTS hits (AID 488865); format: functional;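 further: beta-arrestin recruitment to AT1 measured by enzyme fragment complementation luminescence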
[9] = target: T4, E3 ubiquitin-protein ligase XIAP (Homo sapiens, UniProt P98170); assay: XIAP antagonists, biochemical, IAP family, fluorescence polarization (AID 1018); format: functional
[10] = target: T4, E3 ubiquitin-protein ligase XIAP; assay: Counter Screen using XIAP-Bir3 for Chemical Antagonists of Bir1/2 domains of IAP-family anti-apoptotic proteins. [Related pubchem assays (depositor defined):AID1018, AID1449, AID1514, AID1638, AID1749, AID1750, AID488957, AID488963]
[11] = target: T5, Intestinal-type alkaline phosphatase (Homo sapiens, UniProt P09923); assay: human IAP activators, dose response, biochemical, luminescent, uHTS hits, set 2 (AID 488817); format: functional;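 further: potency of activators that raise enzyme activity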
[12] = target: T6, Intestinal-type alkaline phosphatase (Mus musculus, UniProt P24822); assay: PubChem AID 488875; format: functional
[13] = target: T6, Intestinal-type alkaline phosphatase; assay: PubChem AID 488874; format: functional
[14] = target: T7, Alkaline phosphatase, tissue-nonspecific isozyme (Homo sapiens, UniProt P05186); assay: TNAP enzyme activators, dose response, selectivity assay for human IAP activator project, biochemical, TNAP isozyme, human IAP uHTS hits (AID 488886); format: functional;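 further: potency of compounds raising TNAP activity as a selectivity check on IAP activators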
T7 sequence (P05186 whole entry): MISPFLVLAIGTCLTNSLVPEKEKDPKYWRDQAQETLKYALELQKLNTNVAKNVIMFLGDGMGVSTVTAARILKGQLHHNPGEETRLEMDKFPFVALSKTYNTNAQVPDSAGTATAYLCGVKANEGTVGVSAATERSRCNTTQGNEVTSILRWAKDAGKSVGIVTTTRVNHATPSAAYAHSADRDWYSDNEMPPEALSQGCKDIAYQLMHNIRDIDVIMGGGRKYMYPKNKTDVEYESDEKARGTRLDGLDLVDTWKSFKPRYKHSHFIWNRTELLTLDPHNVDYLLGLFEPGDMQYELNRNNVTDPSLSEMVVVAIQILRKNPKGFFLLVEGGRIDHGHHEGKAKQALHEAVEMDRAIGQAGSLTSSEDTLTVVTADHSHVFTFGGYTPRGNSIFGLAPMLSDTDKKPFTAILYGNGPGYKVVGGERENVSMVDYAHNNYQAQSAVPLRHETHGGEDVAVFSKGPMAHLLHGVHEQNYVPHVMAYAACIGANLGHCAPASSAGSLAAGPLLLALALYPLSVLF

[15] = target: T5, Intestinal-type alkaline phosphatase; assay: human intestinal alkaline phosphatase activators, dose response, biochemical, luminescence, uHTS hits (AID 463120); format: functional

AC50 [7]: 3.55 µM (inconclusive)
EC50 [8]: > 100 µM (inactive)
Compound: CCOc1cc2[nH]c(=S)n(CCC(=O)N3CCc4ccccc4C3)c(=O)c2cc1OCC

IC50 [9]: > 100 µM (not active)
IC50 [10]: > 100 µM (inactive)
Compound: CCOc1ccc(NC(=S)NCCCN2CCN(C3CCCCC3)CC2)cc1

Further lines, the compound ahead of its results:

Compound: Cc1cc(/C=N/NC(=O)Cn2c3ccccc3c(=O)c3ccccc32)c(C)n1-c1ccc(Cl)cc1
IC50 [1]: 11.6 µM (active)
EC50 [2]: 3.28 µM (active)
EC50 [3]: > 35.4 µM (not active)
IC50 [4]: 4.69 µM (active)
EC50 [5]: > 35.4 µM (not active)

Compound: COC(=O)C(=N/Nc1ccccc1C(=O)OC)/C(C)=N/O
EC50 [6]: > 71.5 µM (inactive)

Compound: CC(NS(=O)(=O)c1ccc(Br)cc1)C(=O)Nc1nc2ccccc2[nH]1 (stereo not given)
EC50 [11]: 13.3 µM (active)
EC50 [12]: > 100 µM (inactive)
IC50 [13]: > 100 µM (inactive)
EC50 [14]: 14.3 µM (active)
EC50 [15]: 11 µM (active)
